Laboratory results reported in ChEMBL document CHEMBL1151757, “Synthesis, radiosynthesis, and biological evaluation of fluorine-18-labeled 2beta-carbo(fluoroalkoxy)-3beta-(3'-((Z)-2-haloethenyl)phenyl)nortropanes: candidate radioligands for in vivo imaging of the serotonin transporter with positron emission tomography” (J Med Chem, 2008).

Key:
[1] = Drug uptake in anesthetized cynomolgus monkey brain frontal lobe after 75 mins postinjection; type: ADME, organism-based, Macaca fascicularis; conditions: in vivo, 1.25 h
[2] = Ratio of drug uptake in midbrain to cerebellum in anesthetized cynomolgus monkey after 27.5 mins postinjection; type: ADME, organism-based, Macaca fascicularis; conditions: in vivo
[3] = tested on: Medulla; assay: Drug uptake in anesthetized cynomolgus monkey brain medulla after 12.5 mins postinjection; type: ADME, organism-based, Macaca fascicularis; conditions: in vivo
[4] = Ratio of drug uptake in midbrain to cerebellum in anesthetized cynomolgus monkey after 185 mins postinjection; type: ADME, organism-based, Macaca fascicularis; conditions: in vivo
[5] = Ratio of drug uptake in putamen to cerebellum in anesthetized cynomolgus monkey after 9.5 mins postinjection; type: ADME, organism-based, Macaca fascicularis; conditions: in vivo
[6] = tested on: Medulla; assay: Drug uptake in anesthetized cynomolgus monkey brain medulla after 225 mins postinjection; type: ADME, organism-based, Macaca fascicularis; conditions: in vivo, 3.75 h
[7] = Drug uptake in anesthetized cynomolgus monkey brain occipital lobe after 225 mins postinjection; type: ADME, organism-based, Macaca fascicularis; conditions: in vivo, 3.75 h
[8] = tested on: Thalamus; assay: Drug uptake in anesthetized cynomolgus monkey brain thalamus after 55 mins postinjection; type: ADME, organism-based, Macaca fascicularis; set-up: unit not given here; conditions: in vivo
[9] = Ratio of drug uptake in pons to cerebellum in anesthetized cynomolgus monkey after 6.5 mins postinjection; type: ADME, organism-based, Macaca fascicularis; conditions: in vivo
[10] = tested on: Medulla; assay: Drug uptake in anesthetized cynomolgus monkey brain medulla after 235 mins postinjection; type: ADME, organism-based, Macaca fascicularis; conditions: in vivo
[11] = tested on: Putamen; assay: Drug uptake in anesthetized cynomolgus monkey brain putamen after 85 mins postinjection; type: ADME, organism-based, Macaca fascicularis; set-up: unit not given here; conditions: in vivo
[12] = Drug uptake in anesthetized cynomolgus monkey brain frontal lobe after 165 mins postinjection; type: ADME, organism-based, Macaca fascicularis; conditions: in vivo, 2.75 h
[13] = Drug uptake in anesthetized cynomolgus monkey brain cerebellum after 35 mins postinjection; type: ADME, organism-based, Macaca fascicularis; conditions: in vivo
[14] = tested on: Midbrain; assay: Drug uptake in anesthetized cynomolgus monkey brain midbrain after 235 mins postinjection; type: ADME, organism-based, Macaca fascicularis; conditions: in vivo
[15] = Drug uptake in anesthetized cynomolgus monkey brain occipital lobe after 22.5 mins postinjection; type: ADME, organism-based, Macaca fascicularis; conditions: in vivo, 0.375 h
[16] = tested on: Pons; assay: Drug uptake in anesthetized cynomolgus monkey brain pons after 205 mins postinjection; type: ADME, organism-based, Macaca fascicularis; conditions: in vivo
[17] = Drug uptake in anesthetized cynomolgus monkey brain frontal lobe after 18.5 mins postinjection; type: ADME, organism-based, Macaca fascicularis; conditions: in vivo
[18] = tested on: Medulla; assay: Drug uptake in anesthetized cynomolgus monkey brain medulla after 85 mins postinjection; type: ADME, organism-based, Macaca fascicularis; conditions: in vivo
[19] = Octanol-water partition coefficient, log P at pH 7.4 by shake-flask method; type: physicochemical
[20] = tested on: Medulla; assay: Drug uptake in anesthetized cynomolgus monkey brain medulla after 105 mins postinjection; type: ADME, organism-based, Macaca fascicularis; conditions: in vivo, 1.75 h
[21] = Drug uptake in anesthetized cynomolgus monkey brain occipital lobe after 95 mins postinjection; type: ADME, organism-based, Macaca fascicularis; conditions: in vivo
[22] = Drug uptake in anesthetized cynomolgus monkey brain frontal lobe after 12.5 mins postinjection; type: ADME, organism-based, Macaca fascicularis; conditions: in vivo
[23] = Drug uptake in anesthetized cynomolgus monkey brain cerebellum after 195 mins postinjection; type: ADME, organism-based, Macaca fascicularis; conditions: in vivo, 3.25 h
[24] = Ratio of drug uptake in occipital lobe to cerebellum in anesthetized cynomolgus monkey after 105 mins postinjection; type: ADME, organism-based, Macaca fascicularis; conditions: in vivo, 1.75 h
[25] = tested on: Midbrain; assay: Drug uptake in anesthetized cynomolgus monkey brain midbrain after 3.5 mins postinjection; type: ADME, organism-based, Macaca fascicularis; set-up: unit not given here; conditions: in vivo
[26] = Ratio of drug uptake in occipital lobe to cerebellum in anesthetized cynomolgus monkey after 4.5 mins postinjection; type: ADME, organism-based, Macaca fascicularis; conditions: in vivo, 0.075 h
[27] = tested on: Pons; assay: Drug uptake in anesthetized cynomolgus monkey brain pons after 195 mins postinjection; type: ADME, organism-based, Macaca fascicularis; conditions: in vivo, 3.25 h
[28] = tested on: Caudate; assay: Drug uptake in anesthetized cynomolgus monkey brain caudate after 55 mins postinjection; type: ADME, organism-based, Macaca fascicularis, Caudate nucleus; conditions: in vivo
[29] = Drug uptake in anesthetized cynomolgus monkey brain cerebellum after 225 mins postinjection; type: ADME, organism-based, Macaca fascicularis; conditions: in vivo, 3.75 h
[30] = Drug uptake in anesthetized cynomolgus monkey brain occipital lobe after 0.5 mins postinjection; type: ADME, organism-based, Macaca fascicularis; conditions: in vivo
[31] = tested on: Putamen; assay: Drug uptake in anesthetized cynomolgus monkey brain putamen after 0.5 mins postinjection; type: ADME, organism-based, Macaca fascicularis; conditions: in vivo
[32] = Ratio of drug uptake in frontal lobe to cerebellum in anesthetized cynomolgus monkey after 3.5 mins postinjection; type: ADME, organism-based, Macaca fascicularis; conditions: in vivo
[33] = Ratio of drug uptake in thalamus to cerebellum in anesthetized cynomolgus monkey after 155 mins postinjection; type: ADME, organism-based, Macaca fascicularis; conditions: in vivo
[34] = Ratio of drug uptake in putamen to cerebellum in anesthetized cynomolgus monkey after 165 mins postinjection; type: ADME, organism-based, Macaca fascicularis; conditions: in vivo, 2.75 h
[35] = tested on: Midbrain; assay: Drug uptake in anesthetized cynomolgus monkey brain midbrain after 105 mins postinjection; type: ADME, organism-based, Macaca fascicularis; set-up: unit not given here; conditions: in vivo, 1.75 h
[36] = tested on: Midbrain; assay: Drug uptake in anesthetized cynomolgus monkey brain midbrain after 165 mins postinjection; type: ADME, organism-based, Macaca fascicularis; conditions: in vivo, 2.75 h
[37] = Ratio of drug uptake in occipital lobe to cerebellum in anesthetized cynomolgus monkey after 0.5 mins postinjection; type: ADME, organism-based, Macaca fascicularis; conditions: in vivo
[38] = tested on: Medulla; assay: Drug uptake in anesthetized cynomolgus monkey brain medulla after 65 mins postinjection; type: ADME, organism-based, Macaca fascicularis; conditions: in vivo
[39] = Drug uptake in anesthetized cynomolgus monkey brain occipital lobe after 27.5 mins postinjection; type: ADME, organism-based, Macaca fascicularis; conditions: in vivo
[40] = tested on: Thalamus; assay: Drug uptake in anesthetized cynomolgus monkey brain thalamus after 165 mins postinjection; type: ADME, organism-based, Macaca fascicularis; set-up: unit not given here; conditions: in vivo, 2.75 h
[41] = tested on: Midbrain; assay: Drug uptake in anesthetized cynomolgus monkey brain midbrain after 55 mins postinjection; type: ADME, organism-based, Macaca fascicularis; set-up: unit not given here; conditions: in vivo
[42] = Ratio of drug uptake in occipital lobe to cerebellum in anesthetized cynomolgus monkey after 175 mins postinjection; type: ADME, organism-based, Macaca fascicularis; conditions: in vivo
[43] = tested on: Thalamus; assay: Drug uptake in anesthetized cynomolgus monkey brain thalamus after 15.5 mins postinjection; type: ADME, organism-based, Macaca fascicularis; set-up: unit not given here; conditions: in vivo
[44] = tested on: Medulla; assay: Drug uptake in anesthetized cynomolgus monkey brain medulla after 9.5 mins postinjection; type: ADME, organism-based, Macaca fascicularis; conditions: in vivo
[45] = tested on: Thalamus; assay: Drug uptake in anesthetized cynomolgus monkey brain thalamus after 215 mins postinjection; type: ADME, organism-based, Macaca fascicularis; set-up: unit not given here; conditions: in vivo
[46] = Ratio of drug uptake in putamen to cerebellum in anesthetized cynomolgus monkey after 45 mins postinjection; type: ADME, organism-based, Macaca fascicularis; conditions: in vivo, 0.75 h
[47] = Drug uptake in anesthetized cynomolgus monkey brain occipital lobe after 35 mins postinjection; type: ADME, organism-based, Macaca fascicularis; conditions: in vivo
[48] = tested on: Midbrain; assay: Drug uptake in anesthetized cynomolgus monkey brain midbrain after 2.5 mins postinjection; type: ADME, organism-based, Macaca fascicularis; set-up: unit not given here; conditions: in vivo
[49] = Drug uptake in anesthetized cynomolgus monkey brain cerebellum after 6.5 mins postinjection; type: ADME, organism-based, Macaca fascicularis; conditions: in vivo
[50] = Drug uptake in anesthetized cynomolgus monkey brain cerebellum after 15.5 mins postinjection; type: ADME, organism-based, Macaca fascicularis; conditions: in vivo
[51] = Drug uptake in anesthetized cynomolgus monkey brain occipital lobe after 85 mins postinjection; type: ADME, organism-based, Macaca fascicularis; conditions: in vivo
[52] = Drug uptake in anesthetized cynomolgus monkey brain cerebellum after 115 mins postinjection; type: ADME, organism-based, Macaca fascicularis; conditions: in vivo
[53] = tested on: Midbrain; assay: Drug uptake in anesthetized cynomolgus monkey brain midbrain after 18.5 mins postinjection; type: ADME, organism-based, Macaca fascicularis; set-up: unit not given here; conditions: in vivo
[54] = tested on: Thalamus; assay: Drug uptake in anesthetized cynomolgus monkey brain thalamus after 135 mins postinjection; type: ADME, organism-based, Macaca fascicularis; set-up: unit not given here; conditions: in vivo, 2.25 h
[55] = tested on: Medulla; assay: Drug uptake in anesthetized cynomolgus monkey brain medulla after 75 mins postinjection; type: ADME, organism-based, Macaca fascicularis; conditions: in vivo, 1.25 h
[56] = Ratio of drug uptake in pons to cerebellum in anesthetized cynomolgus monkey after 0.5 mins postinjection; type: ADME, organism-based, Macaca fascicularis; conditions: in vivo
[57] = tested on: Caudate; assay: Drug uptake in anesthetized cynomolgus monkey brain caudate after 1.5 mins postinjection; type: ADME, organism-based, Macaca fascicularis, Caudate nucleus; conditions: in vivo, 0.025 h
[58] = Ratio of drug uptake in putamen to cerebellum in anesthetized cynomolgus monkey after 35 mins postinjection; type: ADME, organism-based, Macaca fascicularis; conditions: in vivo
[59] = Ratio of drug uptake in medulla to cerebellum in anesthetized cynomolgus monkey after 1.5 mins postinjection; type: ADME, organism-based, Macaca fascicularis; conditions: in vivo, 0.025 h
[60] = tested on: Midbrain; assay: Drug uptake in anesthetized cynomolgus monkey brain midbrain after 115 mins postinjection; type: ADME, organism-based, Macaca fascicularis; set-up: unit not given here; conditions: in vivo
[61] = tested on: Caudate; assay: Drug uptake in anesthetized cynomolgus monkey brain caudate after 35 mins postinjection; type: ADME, organism-based, Macaca fascicularis, Caudate nucleus; conditions: in vivo
[62] = tested on: Putamen; assay: Drug uptake in anesthetized cynomolgus monkey brain putamen after 145 mins postinjection; type: ADME, organism-based, Macaca fascicularis; conditions: in vivo
[63] = tested on: Pons; assay: Drug uptake in anesthetized cynomolgus monkey brain pons after 15.5 mins postinjection; type: ADME, organism-based, Macaca fascicularis; conditions: in vivo
[64] = Ratio of drug uptake in midbrain to cerebellum in anesthetized cynomolgus monkey after 145 mins postinjection; type: ADME, organism-based, Macaca fascicularis; conditions: in vivo
[65] = tested on: Caudate; assay: Drug uptake in anesthetized cynomolgus monkey brain caudate after 205 mins postinjection; type: ADME, organism-based, Macaca fascicularis, Caudate nucleus; conditions: in vivo
[66] = Drug uptake in anesthetized cynomolgus monkey brain cerebellum after 18.5 mins postinjection; type: ADME, organism-based, Macaca fascicularis; conditions: in vivo
[67] = Drug uptake in anesthetized cynomolgus monkey brain cerebellum after 175 mins postinjection; type: ADME, organism-based, Macaca fascicularis; conditions: in vivo

O=C(OCCC[18F])C1C2CCC(CC1c1cccc(/C=C\I)c1)N2 (configuration not stated)
Drug uptake [1]: 2.76 | Ratio [2]: 1 | Drug uptake [3]: 4.73 | Ratio [4]: 1.9 | Ratio [5]: 0.9 | Drug uptake [6]: 3.6 | Drug uptake [7]: 2.09 | Drug uptake [8]: 4.89 | Ratio [9]: 0.7 | Drug uptake [10]: 3.15 | Drug uptake [11]: 4.82 | Drug uptake [12]: 2.08 | Drug uptake [13]: 4.74 | Drug uptake [14]: 3.57 | Drug uptake [15]: 3.88 | Drug uptake [16]: 3.34 | Drug uptake [17]: 2.5 | Drug uptake [18]: 4.79 | logD [19]: 1.64 | Drug uptake [20]: 4.34 | Drug uptake [21]: 3.35 | Drug uptake [22]: 2.24 | Drug uptake [23]: 2.16 | Ratio [24]: 1 | Drug uptake [25]: 1.74 | Ratio [26]: 0.8 | Drug uptake [27]: 3.26 | Drug uptake [28]: 4.09 | Drug uptake [29]: 1.87 | Drug uptake [30]: 0.01 | Drug uptake [31]: 0.01 | Ratio [32]: 0.4 | Ratio [33]: 1.6 | Ratio [34]: 1.6 | Drug uptake [35]: 4.82 | Drug uptake [36]: 4.26 | Ratio [37]: 0.8 | Drug uptake [38]: 4.96 | Drug uptake [39]: 4 | Drug uptake [40]: 3.67 | Drug uptake [41]: 4.98 | Ratio [42]: 1.1 | Drug uptake [43]: 4.11 | Drug uptake [44]: 3.97 | Drug uptake [45]: 3.02 | Ratio [46]: 1.1 | Drug uptake [47]: 4.01 | Drug uptake [48]: 0.98 | Drug uptake [49]: 3.91 | Drug uptake [50]: 4.75 | Drug uptake [51]: 3.52 | Drug uptake [52]: 3.1 | Drug uptake [53]: 4.65 | Drug uptake [54]: 4.02 | Drug uptake [55]: 5.16 | Ratio [56]: 1.7 | Drug uptake [57]: 0.16 | Ratio [58]: 1.1 | Ratio [59]: 1.3 | Drug uptake [60]: 4.76 | Drug uptake [61]: 3.9 | Drug uptake [62]: 3.91 | Drug uptake [63]: 3.62 | Ratio [64]: 1.8 | Drug uptake [65]: 2.65 | Drug uptake [66]: 4.74 | Drug uptake [67]: 2.37
